A short description of assay [1]: Body weight and lipid change of overweight rats treated 10 days by daily gavage. The note with it: overweight male Wistar rats, 10-day daily gavage; oleoyl-estrone 10 micromol/kg, dexfenfluramine 3 mg/kg, sibutramine 5 mg/kg. The format is in vivo. The text has this:
(§1) Forty-five day-old male Wistar rats were used. The rats were kept in collective cages in a light cycle, temperature, and humidity-controlled environment. They were fed tap water and a self-selected cafeteria diet (containing an excess of tasty, energy-dense foods, as well as standard chow) for 45 additional days. Then they were subjected to a 5-day diet adaptation period, in which they had rat chow as the sole food available. At this point, the rats weighed 350-370 g and had plenty of body fat. Maintaining the availability of rat chow (daily consumption by the group was recorded) and tap water, body weight was recorded daily. The animals were given a daily gavage of either 0.2 mL of sunflower oil or the same vehicle containing oleoyl-estrone.
(§2) Six groups of animals were used: • a) controls, receiving a daily gavage of 0.2 mL of sunflower oil; • b) oleoyl-estrone, receiving the same daily gavage of 0.2 mL of sunflower oil, but containing oleoyl-estrone, to a a daily dose of 10 micromol per kg of body weight; • c) dexfenfluramine: receiving the same daily gavage of 0.2 mL of sunflower oil, and a second gavage of 0.2 mL of dexfenfluramine in water, to a a daily dose of 3 mg per kg of body weight; • d) dexfenfluramine plus oleoyl-estrone: receiving both gavages, 0.2 mL of oil and oleoyl-estrone (to a daily dose of 10 micromol per kg of body weight) and 0.2 mL of water and dexfenfluramine, to a daily dose of 3 mg per kg of body weight; • e) sibutramine: receiving the same daily gavage of 0.2 mL of sunflower oil, and a second gavage of 0.2 mL of sibutramine in water, to a a daily dose of 5 mg per kg of body weight; • f) sibutramine plus oleoyl-estrone: receiving both gavages, 0.2 mL of oil and oleoyl-estrone (to a daily dose of 10 micromol per kg of body weight) and 0.2 mL of water and sibutramine, to a daily dose of 5 mg per kg of body weight.
(§3) The treatment was maintained up to 10 days, when the animals were killed by decapitation, and their blood and carcass were used for analyses. Plasma was separated from the blood. The plasma was preserved frozen until its utilization for the estimation of glucose, cholesterol, triacylglycerol, free fatty acids, and insulin levels using standard methods, as well as for the estimation of alanine- and aspartate-transaminase activities.
The rat corpses, partially exsanguinated were dissected. The stomach and intestines were cleaned of their contents. The remaining carcass was sealed into polyethylene bags, autoclaved and blended to a fine paste. This paste was analysed for lipid content by extraction using trichloromethane/methanol and corrected by its water content. Lipid content in the paste was referred to whole in vivo body weight for comparison.
(§4) Samples of the rat paste were dried and used for the estimation of their caloric content using a bomb calorimeter. The initial values for lipid content were calculated from the corresponding in vivo body weights at the beginning of the experiment and applying to all the animals the mean percentage of lipid content found in the control (vehicle only) group at the end of the experiment. This same procedure was used to determine the overall energy content of the carcasses by using the experimentally found energy content of the rats in the control group. Likewise, the energy content of the pellet diet was also measured and used to estimate the energy intake of the animals.

Assay [2] in a line: Energy balance (carcass energy, food/energy intake, energy expenditure) of overweight rats treated 10 days. The note with it: for decrease in food consumption / loss of energy from the internal stores / net contribution of internal stores to energy expenditure: overweight male Wistar rats, 10-day daily gavage, same doses; for carcass energy content (ranking among groups): end of 10-day treatment, bomb calorimeter. The format is in vivo, male Wistar rats.
Excerpt: as §1, §2, §3, §4
Energy expenditure (Ee) was estimated as the difference between energy intake (Ei) and accrual (Ea), since: Ei=Ee±Ea.

Assay [3] is described as follows: Plasma composition of rats after 10 days of treatment. The format is in vivo, male Wistar rats. The note with it: after 10-day treatment, compared with other groups.
Excerpt: as §1, with “oleoyl-estrone. […]” for “oleoyl-estrone.”

Several values for one entry are separate records, joined by “and”; a condition that tells them apart may be missing. Identical values can stand only once. Entries after “also recorded” stand apart in the source; their conditions may differ.

For the molecule `CCN[C@@H](C)Cc1cccc(C(F)(F)F)c1` [dexfenfluramine], in assay [1], the “loss of body weight” value is 3% and 2.6%; the “loss of lipid (body lipid)” value is about 16%. Besides, in assay [2], the “decrease in food consumption” value came to 23%, the “loss of energy from the internal stores” value was 546 kJ and the “net contribution of internal stores to energy expenditure” value is recorded as about 20%.
On to `CCCCCCCC/C=C\CCCCCCCC(=O)Oc1ccc2c(c1)CC[C@@H]1[C@@H]2CC[C@]2(C)C(=O)CC[C@@H]12` [oleoyl-estrone, [3(Z)]-3-[(1-oxo-9-octadecenyl)oxy]-estra-1,3,5(10)-trien-17-one], for which the “loss of lipid (body lipid)” value in assay [1] came out at 13%. Moreover, in assay [2], the “carcass energy content (ranking among groups)” value is reported as “smaller”, the “decrease in food consumption” value is recorded as 32% and the “loss of energy from the internal stores” value worked out at 357 kJ. In assay [3], the plasma triacylglycerol levels entry is “lower; also recorded: decreased”.
With `CC(C)CC(N(C)C)C1(c2ccc(Cl)cc2)CCC1` (stereo not shown) [sibutramine], in assay [1], the “loss of body weight” value is 4% and 3.8%; the “loss of lipid (body lipid)” value was found to be 15%. For the same molecule, in assay [2], the “carcass energy content (ranking among groups)” value is “smaller”, the “decrease in food consumption” value is 26%, the “loss of energy from the internal stores” value is on record as 403 kJ and the “net contribution of internal stores to energy expenditure” value is reported as about 20%.

Source of the values: patent publication US20060258631A1, “Methods of using fatty-acid esters of estrogens and serotonin reuptake inhibiting compounds for reducing the body weight of a mammal and compositions containing the same” (Oleoyl-Estrone Development SL, priority 2004, published 2006).
